Experimental data: PubChem BioAssay AID330 (DTP/NCI, 2004)
Where “and” joins values, the source holds several entries; their conditions need not be identical. Equal entries are not always repeated. Inconclusive results and toxic doses are left out.

System: P388 leukemia ip, CD2F1 mice, survival T/C
Assay: NCI In Vivo Anticancer Drug Screen. Data for tumor model P388 Leukemia (intraperitoneal) in CD2F1 (CDF1) mice
Conditions: endpoint: median survival time, higher = longer survival
Method in brief: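 Mice carrying the transplanted tumor received test compound or vehicle. Survival was recorded in each group, and the value is the treated-group measurement divided by that of the vehicle-treated control group.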

[1] = dose: 100.0 mg/kg/injection, schedule: Q01DX001 (ip), vehicle: saline
[2] = dose: 200.0 mg/kg/injection, schedule: Q01DX001 (ip), vehicle: saline
[3] = dose: 400.0 mg/kg/injection, schedule: Q01DX001 (ip), vehicle: saline
[4] = dose: 50.0 mg/kg/injection, schedule: Q01DX005 (ip), vehicle: saline with Tween-80
[5] = dose: 100.0 mg/kg/injection, schedule: Q01DX005 (ip), vehicle: saline with Tween-80
[6] = dose: 200.0 mg/kg/injection, schedule: Q01DX005 (ip), vehicle: saline with Tween-80
[7] = dose: 12.5 mg/kg/injection, schedule: Q01DX009 (ip), vehicle: saline with Tween-80
[8] = dose: 25.0 mg/kg/injection, schedule: Q01DX009 (ip), vehicle: saline with Tween-80
[9] = dose: 50.0 mg/kg/injection, schedule: Q01DX009 (ip), vehicle: saline with Tween-80
[10] = dose: 50.0 mg/kg/injection, schedule: Q01DX009 (ip), vehicle: saline
[11] = dose: 100.0 mg/kg/injection, schedule: Q01DX009 (ip), vehicle: saline
[12] = dose: 60.0 mg/kg/injection, schedule: Q01DX005 (ip), vehicle: saline with Tween-80
[13] = dose: 120.0 mg/kg/injection, schedule: Q01DX005 (ip), vehicle: saline with Tween-80
[14] = dose: 50.0 mg/kg/injection, schedule: Q01DX005 (ip), vehicle: Klucel (hydroxypropylcellulose) (HPC)
[15] = dose: 100.0 mg/kg/injection, schedule: Q01DX005 (ip), vehicle: Klucel (hydroxypropylcellulose) (HPC)
[16] = dose: 200.0 mg/kg/injection, schedule: Q01DX005 (ip), vehicle: Klucel (hydroxypropylcellulose) (HPC)
[17] = dose: 100.0 mg/kg/injection, schedule: Q01DX009 (ip), vehicle: saline with Tween-80
[18] = dose: 100.0 mg/kg/injection, schedule: Q04DX003 (ip), vehicle: saline with Tween-80
[19] = dose: 200.0 mg/kg/injection, schedule: Q04DX003 (ip), vehicle: saline with Tween-80
[20] = dose: 12.5 mg/kg/injection, schedule: Q01DX009 (ip), vehicle: saline
[21] = dose: 25.0 mg/kg/injection, schedule: Q01DX009 (ip), vehicle: saline

CNC(=S)NNc1ccc(Cl)nn1
T/C [1]: 96 % of control
T/C [2]: 96 % of control
T/C [3]: 102 % of control

OCCCOCCCOCCCOCCCOCCCOCCCO
T/C [4]: 100 % of control
T/C [5]: 96 % of control
T/C [6]: 102 % of control

NCCc1c[nH]c2ccc(OCc3ccccc3)cc12
T/C (dose: 50.0 mg/kg/injection, schedule: Q04DX003 (ip), vehicle: saline): 109 % of control
T/C (dose: 100.0 mg/kg/injection, schedule: Q04DX003 (ip), vehicle: saline): 116 % of control

CC(C)N1C(=O)C=C(c2ccc([N+](=O)[O-])cc2)C1=O
T/C [7]: 105 % of control
T/C [8]: 105 % of control
T/C [9]: 106 % of control

OCC1c2ccc(Cl)cc2Nc2ccc(Cl)cc21 (stereo not drawn)
T/C (dose: 100.0 mg/kg/injection, schedule: Q01DX001 (ip), vehicle: saline with Tween-80): 104 % of control
T/C (dose: 200.0 mg/kg/injection, schedule: Q01DX001 (ip), vehicle: saline with Tween-80): 95 % of control
T/C (dose: 400.0 mg/kg/injection, schedule: Q01DX001 (ip), vehicle: saline with Tween-80): 100 % of control

CN(C)CCSC(=O)N1c2ccccc2C(C)(C)c2ccccc21
T/C [10]: 102 % of control
T/C [11]: 103 % of control

CC(=O)Nc1cc(NC(C)=O)cc(C(=O)O)c1
T/C (dose: 60.0 mg/kg/injection, schedule: Q01DX005 (ip), vehicle: Klucel (hydroxypropylcellulose) (HPC)): 90 % of control
T/C (dose: 120.0 mg/kg/injection, schedule: Q01DX005 (ip), vehicle: Klucel (hydroxypropylcellulose) (HPC)): 90 % of control
T/C (dose: 240.0 mg/kg/injection, schedule: Q01DX005 (ip), vehicle: Klucel (hydroxypropylcellulose) (HPC)): 90 % of control

COC(=O)C1=COC(C)C2CN3CCc4c([nH]c5cc(OC)ccc45)C3CC12 (stereo not drawn)
T/C [4]: 91 % of control
T/C [5]: 109 % of control
T/C [6]: 109 % of control

O=C(O)C(OC(=O)C(F)(F)F)C(F)(F)C(F)(F)C(F)(F)F (stereo not drawn)
T/C [12]: 95 % of control
T/C [13]: 89 % of control
T/C (dose: 240.0 mg/kg/injection, schedule: Q01DX005 (ip), vehicle: saline with Tween-80): 99 % of control

Clc1ccccc1C(Nc1nc2ccccc2s1)Nc1nc2ccccc2s1
T/C [14]: 102 % of control
T/C [15]: 99 % of control
T/C [16]: 99 % of control

CN(C)c1ccc2ncc(C(N)=O)c(N)c2c1
T/C (dose: 7.5 mg/kg/injection, schedule: Q01DX005 (ip), vehicle: Klucel (hydroxypropylcellulose) (HPC)): 91 % of control
T/C (dose: 15.0 mg/kg/injection, schedule: Q01DX005 (ip), vehicle: Klucel (hydroxypropylcellulose) (HPC)): 99 % of control
T/C (dose: 30.0 mg/kg/injection, schedule: Q01DX005 (ip), vehicle: Klucel (hydroxypropylcellulose) (HPC)): 97 % of control

CCOc1ccc(/C=C/C(C)=N/NC(N)=Nc2ccc(Cl)cc2)cc1
T/C (dose: 12.5 mg/kg/injection, schedule: Q01DX005 (ip), vehicle: saline with Tween-80): 96 % of control
T/C (dose: 25.0 mg/kg/injection, schedule: Q01DX005 (ip), vehicle: saline with Tween-80): 97 % of control
T/C [4]: 107 % of control and 97 % of control

Brc1ccc(C[N+]23CCN(CC2)CC3)cc1
T/C [7]: 95 % of control
T/C [8]: 90 % of control
T/C [9]: 90 % of control

CC(c1ccc(O)cc1)c1cc2c(cc1OCCO)OCO2 (stereo not drawn)
T/C [4]: 94 % of control
T/C [5]: 91 % of control
T/C [6]: 92 % of control

CC(C)NCC(O)COc1cccc2ccccc12 (stereo not drawn)
T/C (dose: 4.0 mg/kg/injection, schedule: Q01DX009 (ip), vehicle: Klucel (hydroxypropylcellulose) (HPC)): 97 % of control
T/C (dose: 8.0 mg/kg/injection, schedule: Q01DX009 (ip), vehicle: Klucel (hydroxypropylcellulose) (HPC)): 98 % of control
T/C (dose: 16.0 mg/kg/injection, schedule: Q01DX009 (ip), vehicle: Klucel (hydroxypropylcellulose) (HPC)): 100 % of control
T/C (dose: 32.0 mg/kg/injection, schedule: Q01DX009 (ip), vehicle: Klucel (hydroxypropylcellulose) (HPC)): 95 % of control
T/C (dose: 64.0 mg/kg/injection, schedule: Q01DX009 (ip), vehicle: Klucel (hydroxypropylcellulose) (HPC)): 113 % of control

COC(=O)C(C)NC(=O)C(C)NC(=O)C(C)NC(C)=O (stereo not drawn)
T/C [14]: 102 % of control
T/C [15]: 94 % of control
T/C [16]: 100 % of control

CCn1c2ccccc2c2cc(NC(=O)N(CCCl)N=O)ccc21
T/C (dose: 6.25 mg/kg/injection, schedule: Q01DX009 (ip), vehicle: saline with Tween-80): 119 % of control
T/C [7]: 122 % of control
T/C [17]: 189 % of control

CSc1nc2c(Cl)ncnc2s1
T/C [12]: 96 % of control
T/C [13]: 96 % of control

CN(C)c1ccc(C=Nc2cccc(Cl)c2)cc1
T/C (dose: 50.0 mg/kg/injection, schedule: Q01DX009 (ip), vehicle: Klucel (hydroxypropylcellulose) (HPC)): 108 % of control
T/C (dose: 100.0 mg/kg/injection, schedule: Q01DX009 (ip), vehicle: Klucel (hydroxypropylcellulose) (HPC)): 98 % of control
T/C (dose: 200.0 mg/kg/injection, schedule: Q01DX009 (ip), vehicle: Klucel (hydroxypropylcellulose) (HPC)): 103 % of control

COC(=O)C1(C)CCCC2(C)c3cc(OC(C)=O)c(C(C)C)cc3CCC12 (stereo not drawn)
T/C [1]: 100 % of control
T/C [2]: 106 % of control
T/C [3]: 105 % of control

CSc1nc(N)c(I)c(Cl)n1
T/C (dose: 50.0 mg/kg/injection, schedule: Q04DX003 (ip), vehicle: saline with Tween-80): 100 % of control
T/C [1]: 110 % of control
T/C [18]: 102 % of control
T/C [2]: 113 % of control
T/C [19]: 93 % of control
T/C [3]: 110 % of control

CN1C(=O)C2SC(=NNc3ccccc3)SC1C(=O)N2C
T/C [18]: 106 % of control
T/C [19]: 120 % of control
T/C (dose: 400.0 mg/kg/injection, schedule: Q04DX003 (ip), vehicle: saline with Tween-80): 100 % of control

CCC(=O)c1cc(Cl)ccc1O
T/C (dose: 37.5 mg/kg/injection, schedule: Q01DX001 (ip), vehicle: other): 104 % of control
T/C (dose: 75.0 mg/kg/injection, schedule: Q01DX001 (ip), vehicle: other): 100 % of control
T/C (dose: 150.0 mg/kg/injection, schedule: Q01DX001 (ip), vehicle: other): 100 % of control

Nc1nc(N)c2nc(CNc3ccc(C(=O)NC(CCC(=O)O)C(=O)O)cc3)cnc2n1 (stereo not drawn)
T/C (dose: 0.03 mg/kg/injection, schedule: Q01DX009 (ip), vehicle: clinical formulation): 105 % of control
T/C (dose: 0.04 mg/kg/injection, schedule: Q01DX009 (ip), vehicle: clinical formulation): 120 % of control

O=C(O)CN(CCO)CCN(CC(=O)O)CC(=O)O
T/C [20]: 100 % of control
T/C [8]: 100 % of control
T/C [21]: 104 % of control
T/C [9]: 95 % of control
T/C [10]: 95 % of control
T/C [17]: 100 % of control
T/C [11]: 98 % of control

O=[N+]([O-])c1cc2c(cc1Cl)C1C(C3C2C2(Cl)C(Cl)=C(Cl)C3(Cl)C2(Cl)Cl)C2(Cl)C(Cl)=C(Cl)C1(Cl)C2(Cl)Cl (stereo not drawn)
T/C [10]: 101 % of control
T/C [11]: 109 % of control
T/C (dose: 200.0 mg/kg/injection, schedule: Q01DX009 (ip), vehicle: saline): 106 % of control

COc1ccc2c(c1)c(CC(N)=O)c(C)n2C(=O)c1ccc(Cl)nc1
T/C (dose: 52.75 mg/kg/injection, schedule: Q01DX005 (ip), vehicle: saline with Tween-80): 94 % of control
T/C (dose: 105.5 mg/kg/injection, schedule: Q01DX005 (ip), vehicle: saline with Tween-80): 92 % of control

CCOC(=O)C1(C)CCCC1N (stereo not drawn)
T/C (dose: 60.0 mg/kg/injection, schedule: Q01DX005 (ip), vehicle: saline): 92 % of control
T/C (dose: 120.0 mg/kg/injection, schedule: Q01DX005 (ip), vehicle: saline): 90 % of control

CCCCCCCCCCCCCCCC[N+]1([O-])CCCCC1
T/C [20]: 101 % of control
T/C [21]: 108 % of control
T/C [10]: 100 % of control and 107 % of control

S=C1SSC(=S)C1=C1C=CN(Cc2ccccc2)C=C1
T/C (dose: 25.0 mg/kg/injection, schedule: Q04DX002 (ip), vehicle: saline with Tween-80): 102 % of control
T/C (dose: 50.0 mg/kg/injection, schedule: Q04DX002 (ip), vehicle: saline with Tween-80): 99 % of control
T/C (dose: 100.0 mg/kg/injection, schedule: Q04DX002 (ip), vehicle: saline with Tween-80): 100 % of control
